{
  "source": "patent US9198879B2",
  "about": "“Pharmacologically optimized multimodal drug delivery system for nordihydroguiaretic acid (NDGA)” (Napo Pharmaceuticals, Inc., priority 2011, dated 2015)",
  "key": {"[1]": {"assay": "First Phase I ascending single-dose study, NDGA concentrations in plasma after oral capsules", "format": "in vivo, human", "conditions": "for AUC0-last / Cmax / Tmax: capsule, healthy male volunteers", "experimental": "(§1) The first Phase I study of NDGA was an ascending-dose, single-dose, single-blind (subject), placebo-controlled study conducted in healthy male volunteers between 18 and 45 years old. Fourteen subjects participated in up to 3 study periods, and 5 doses of NDGA were studied: 200, 400, 800, 1600, and 2000 mg. During each study period the subjects were monitored for safety for 72 hours following NDGA oral administration. Blood samples collected following NDGA administration were used to determine NDGA concentrations in plasma. […] The orally administered NDGA used in the study was contained in white, opaque, size 3 gelatin capsules. Each capsule contained 100 mg of NDGA.\nThe results for each of the five doses are depicted in FIGS. 4 to 8 corresponding to 200, 400, 800, 1600 and 2000 mg dosages, respectively.\nThe pharmacokinetic parameters of NDGA as observed in this experiment are given below in Table 1: […]"}, "Fructose/STZ rats": {"system": "Fructose/STZ rats", "assay": "Triglyceride and FFA lowering in Fructose/STZ rats", "format": "in vivo, rat", "conditions": "fructose-fed/STZ rats", "description": "(§2) In this study, the following animal models where used: • Db/db mice: homozygous mice are a model of obesity, diabetes and dyslipedemia where their leptin receptor activity is deficient. • Ob/ob mice: obese mice with diabetes. • Db/lean mice: heterozygous mice that are not diabetic. • Fat/STZ rats: non-genetically diabetic overweight rats that are fed diets enriched in fat and made hyperglycemic by chemically removing their pancreatic function to reduce insulin production by treating them with streptozotocin (STZ). • Fructose/STZ rats: non-diabetic rats that are fed diets enriched in fructose and made hyperglycemic by treating them with STZ. • ZDF rats: obese and hyperglycemic rats with other metabolic disorders.\nThese reductions in free fatty acid concentration could result from either decreased production (by reduced lipolysis) or increased removal of free fatty acids from the circulation by liver, fat or muscle."}, "rodent models": {"system": "rodent models", "assay": "Oral NDGA in a variety of rodent models (model not given)", "format": "in vivo", "experimental": "In these studies, a variety of rodent models were used to evaluate the glucose-lowering properties and its effects on lipids, such as lowering of triglycerides. NDGA was administered orally to animals over a wide range of doses (10 to 350) mg/kg.\nNDGA was effective at lowering glucose when formulated in either aqueous or lipophilic vehicles to varying degrees of efficacy."}, "[2]": {"conditions": "cited from earlier work"}, "rat adipocytes": {"system": "rat adipocytes", "conditions": "cited from earlier work"}, "Ob/ob mice": {"system": "Ob/ob mice", "assay": "Glucose lowering in ob/ob mice", "format": "in vivo, mouse", "conditions": "ob/ob mice with diabetes, given orally", "description": "as §2\nBaseline glucose and triglyceride concentrations, where appropriate, were measured for both diabetic and normal animals."}, "[3]": {"system": "liver triglyceride secretion", "assay": "Liver triglyceride secretion", "format": "in vivo", "conditions": "NDGA treatment", "description": "It is likely that the triglyceride-lowering effect of NDGA may also be explained, at least in part, by the suppression of free fatty acid (FFA) release. Free fatty acids in the circulation can enter the liver and can be re-assembled into triglycerides by the process of re-esterification. […] It should be noted that other mechanisms for reducing triglycerides, such as increased triglyceride clearance, are not ruled out by these findings.\nThe triglyceride-lowering effect of NDGA may be explained by the suppression of free fatty acid (FFA) release. Free fatty acids in the circulation can enter the liver and be re-assembled into triglycerides in a process known as re-esterification."}, "[4]": {"assay": "Phase I safety study, patients reporting adverse events", "format": "in vivo, human", "conditions": "n = 29", "experimental": "as §1\nThe second Phase I study of NDGA was an open-label, randomized, two-period crossover study designed to determine if a high-fat meal affects the absorption of NDGA, and to provide preliminary information about possible gender differences in the pharmacokinetics of NDGA. A total of 16 healthy volunteers (8 men and 8 women), ranging in age from 19 to 48 years old, participated in this study. Each subject received an active NDGA dose under fasted conditions and another under fed conditions (the two study periods were separated by a 7-day washout period). Blood samples were collected immediately before and for 48 hours following NDGA administration and used for determination of plasma concentrations of NDGA. The NDGA used in the study was provided in white, opaque Size 0 gelatin capsules. Each capsule contained 250 mg of NDGA."}, "fat/STZ rat": {"system": "fat/STZ rat", "assay": "Whole-body insulin-stimulated glucose disposition (SSPG) with constant intravenous glucose/insulin infusion", "format": "in vivo", "conditions": "steady-state plasma insulin held constant", "experimental": "Studies were also conducted to determine the mechanism by which NDGA lowers glucose. To do so, NDGA was administered to determine the effects of NDGA on insulin-stimulated glucose disposition and on basal hepatic glucose production using the high fat diet fed/streptozotocin (STZ) rat model of NIDDM. Whole-body insulin-stimulated glucose disposition was measured using a constant intravenous glucose/insulin infusion, in which the steady-state plasma insulin concentration (SSPI) is held constant and the steady-state plasma glucose concentration (SSPG) is a measure of net glucose clearance. […] In these same studies basal hepatic glucose production was measured using an intravenous infusion of radiolabeled glucose (no insulin was infused).\nStudies were conducted to determine the effects of NDGA (masoprocol) on insulin-stimulated glucose disposition and on basal hepatic glucose production using the fat/STZ rat. Whole-body insulin-stimulated glucose disposition was measured using a constant intravenous glucose/insulin infusion, in which the steady-state plasma insulin concentration (SSPI) is held constant and the steady-state plasma glucose concentration (SSPG) is a measure of net glucose clearance."}},
  "note": "Entries after “also recorded” stand apart in the source; their conditions may differ.",
  "data": [
    {"smiles": "CC(Cc1ccc(O)c(O)c1)C(C)Cc1ccc(O)c(O)c1", "note": "(centres unmarked) [NDGA, nordihydroguaiaretic acid]", "values": [
      {"measurement": "AUC0-last", "setting": "[1]; 200 mg single oral dose", "result": "66 +/− 26 ng-eq hr/ml"},
      {"measurement": "Cmax", "setting": "[1]; 200 mg single oral dose", "result": "32.6 +/− 15.3 ng-eq/ml"},
      {"measurement": "Tmax", "setting": "[1]; 200 mg single oral dose", "result": "1.3 ± 0.5", "unit": "h"},
      {"measurement": "AUC0-last", "setting": "[1]; 400 mg single oral dose", "result": "385 +/− 90 ng-eq hr/ml"},
      {"measurement": "Cmax", "setting": "[1]; 400 mg single oral dose", "result": "69.1 +/− 51.6 ng-eq/ml"},
      {"measurement": "Tmax", "setting": "[1]; 400 mg single oral dose", "result": "1.8 ± 0.5", "unit": "h"},
      {"measurement": "AUC0-last", "setting": "[1]; 800 mg single oral dose", "result": "591 +/− 252 ng-eq hr/ml"},
      {"measurement": "Cmax", "setting": "[1]; 800 mg single oral dose", "result": "120.3 +/− 66.3 ng-eq/ml"},
      {"measurement": "Tmax", "setting": "[1]; 800 mg single oral dose", "result": "1.8 ± 1.0", "unit": "h"},
      {"measurement": "AUC0-last", "setting": "[1]; 1600 mg single oral dose", "result": "889 +/− 252 ng-eq hr/ml"},
      {"measurement": "Cmax", "setting": "[1]; 1600 mg single oral dose", "result": "189.3 +/− 65.7 ng-eq/ml"},
      {"measurement": "Tmax", "setting": "[1]; 1600 mg single oral dose", "result": "1.5 ± 0.6", "unit": "h"},
      {"measurement": "AUC0-last", "setting": "[1]; 2000 mg single oral dose", "result": "1380 +/− 514 ng-eq hr/ml"},
      {"measurement": "Cmax", "setting": "[1]; 2000 mg single oral dose", "result": "187.6 +/− 106.0 ng-eq/ml"},
      {"measurement": "Tmax", "setting": "[1]; 2000 mg single oral dose", "result": "1.0 ± 0.0", "unit": "h"},
      {"measurement": "Safety of each tested dose", "setting": "[1]; 200, 400, 800, 1600 and 2000 mg single oral dose, monitored 72 hours", "result": "considered safe"},
      {"measurement": "Shape of concentration vs. time curves", "setting": "[1]; all five doses, 200 to 2000 mg", "result": "unimodal (single peak)"},
      {"measurement": "Dose proportionality of peaks", "setting": "[1]; increasing dose levels, 200 to 2000 mg", "result": "less than dose proportional"},
      {"measurement": "Elimination", "setting": "[1]; oral capsule (immediate release), lower dose levels", "result": "rapid elimination"},
      {"measurement": "free fatty acid (FFA) concentrations", "setting": "Fructose/STZ rats", "result": "decreases free fatty acid (FFA) concentrations"},
      {"measurement": "plasma triglyceride lowering", "setting": "Fructose/STZ rats", "result": "significantly and dramatically lowered plasma triglycerides"},
      {"measurement": "triglyceride lowering", "setting": "rodent models; CMC, PEG or Gelucire vehicles, doses as low as 10 mg/kg twice per day", "result": "lowered triglyceride concentrations"},
      {"measurement": "triglyceride lowering", "setting": "rodent models; administered orally just once per day", "result": "lowered triglycerides"},
      {"measurement": "insulin concentrations", "setting": "rodent models; highest dose studied, 350 mg/kg twice daily", "result": "did not result in increased insulin concentrations"},
      {"measurement": "glucose lowering", "setting": "rodent models; once daily administration", "result": "generally ineffective at lowering glucose concentrations"},
      {"measurement": "solubility in aqueous media / water", "setting": "[2]; aqueous media", "result": "poorly water-soluble; also recorded: insoluble"},
      {"measurement": "solubility in organic solvents", "setting": "[2]; organic solvents such as methanol and ethanol", "result": "soluble"},
      {"measurement": "glucose transport", "setting": "rat adipocytes; adipocytes, in vitro", "result": "directly stimulates glucose transport"},
      {"measurement": "isoproterenol-induced lipolysis", "setting": "rat adipocytes; rat adipocytes, in vitro (Gowri et al., 1999)", "result": "inhibition"},
      {"measurement": "glucose lowering", "setting": "Ob/ob mice", "result": "significantly lowers glucose"},
      {"measurement": "liver triglyceride secretion", "setting": "[3]", "result": "inhibit liver triglyceride secretion"},
      {"measurement": "Patients reporting adverse event: Abdominal pain", "setting": "[4]; Body as a whole", "result": 1},
      {"measurement": "Patients reporting adverse event: Asthenia", "setting": "[4]; Body as a whole", "result": 2},
      {"measurement": "Patients reporting adverse event: Headache", "setting": "[4]; Body as a whole", "result": 8},
      {"measurement": "Patients reporting adverse event: Neck rigidity", "setting": "[4]; Body as a whole", "result": 1},
      {"measurement": "Patients reporting adverse event: Pain", "setting": "[4]; Body as a whole", "result": 1},
      {"measurement": "Patients reporting adverse event: Syncope", "setting": "[4]; Cardiovascular system", "result": 1},
      {"measurement": "Patients reporting adverse event: Diarrhea", "setting": "[4]; Digestive system", "result": 2},
      {"measurement": "Patients reporting adverse event: Dyspepsia", "setting": "[4]; Digestive system", "result": 1},
      {"measurement": "Patients reporting adverse event: GI hemorrhage", "setting": "[4]; Digestive system", "result": 1},
      {"measurement": "Patients reporting adverse event: Increased appetite", "setting": "[4]; Digestive system", "result": 1},
      {"measurement": "Patients reporting adverse event: Vomiting", "setting": "[4]; Digestive system", "result": 1},
      {"measurement": "Patients reporting adverse event: Dizziness", "setting": "[4]; Nervous system", "result": 1},
      {"measurement": "Patients reporting adverse event: Hyperesthesia", "setting": "[4]; Nervous system", "result": 1},
      {"measurement": "Patients reporting adverse event: Increased coughing", "setting": "[4]; Respiratory system", "result": 1},
      {"measurement": "Patients reporting adverse event: Pharyngitis", "setting": "[4]; Respiratory system", "result": 1},
      {"measurement": "Patients reporting adverse event: Eye pain", "setting": "[4]; Special senses", "result": 1},
      {"measurement": "Patients reporting adverse event: Hematuria", "setting": "[4]; Urogenital system", "result": 1},
      {"measurement": "reduction of steady-state plasma glucose concentration (SSPG) versus vehicle control group", "setting": "fat/STZ rat; p<0.05", "result": "approximately 30%"},
      {"measurement": "reduction of steady-state plasma glucose concentration (SSPG) versus vehicle control group", "setting": "fat/STZ rat; p<0.05, listed as Masoprocol", "result": 30, "unit": "%"}
    ]}
  ]
}
